Test results: ChEMBL document CHEMBL5360603, “Diselenide Covalent Allosteric Inhibitors of Glutaminase with Strong In Vivo Anticancer Activity” (ACS Med Chem Lett, 2023)
Calls of active or inactive are those of the source. The calls are words filed in the database; no cut-off is given here. Starred links: 1 amine or outer side, 2 acyl side, 3 side chain; linkers in the order of their positions; H or OH if unused. Positions of bridges follow the written chain, without caps; N, C: chain ends. Non-standard residues stand in square brackets, D forms with d. Residues, ends and D or L forms follow the SMILES beside them. Chains are numbered I, II in the order given. Actinocin(9to1) = Cc1c2oc3c(C)ccc(C(=O)[*:1])c3nc-2c(C(=O)[*:2])c(N)c1=O; NMeV = CN[C@H](C(=O)O)C(C)C; Sar = CNCC(=O)O

What was measured:
[1] = target: T1, Glutaminase kidney isoform, mitochondrial (Homo sapiens, UniProt O94925); assay: Negative allosteric modulator activity at human wildtype KGA incubated for 5 hrs in presence of GDH and NADP by EZMTT assay
T1 sequence (O94925 whole entry): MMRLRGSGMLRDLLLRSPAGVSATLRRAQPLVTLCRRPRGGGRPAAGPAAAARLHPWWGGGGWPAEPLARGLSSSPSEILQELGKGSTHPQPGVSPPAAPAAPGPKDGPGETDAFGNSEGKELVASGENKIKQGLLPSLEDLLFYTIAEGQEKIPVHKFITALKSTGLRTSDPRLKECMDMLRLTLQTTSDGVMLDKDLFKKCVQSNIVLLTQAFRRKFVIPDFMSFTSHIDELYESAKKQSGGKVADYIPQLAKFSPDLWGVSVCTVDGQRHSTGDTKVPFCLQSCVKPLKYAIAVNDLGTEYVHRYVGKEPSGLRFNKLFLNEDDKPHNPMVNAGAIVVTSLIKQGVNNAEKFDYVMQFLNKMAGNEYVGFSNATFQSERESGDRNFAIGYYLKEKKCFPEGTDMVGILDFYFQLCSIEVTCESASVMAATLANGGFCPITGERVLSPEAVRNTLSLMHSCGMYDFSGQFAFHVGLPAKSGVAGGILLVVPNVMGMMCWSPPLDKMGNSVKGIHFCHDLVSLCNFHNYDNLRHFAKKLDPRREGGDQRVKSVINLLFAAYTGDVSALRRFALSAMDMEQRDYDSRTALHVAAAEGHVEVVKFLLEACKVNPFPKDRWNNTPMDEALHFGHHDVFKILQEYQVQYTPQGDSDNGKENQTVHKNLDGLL

[2] = Negative allosteric modulator activity at Escherichia coli GDH incubated for 1.5 hrs in presence of glutamate and NADP by EZMTT assay
A549 = assay: Antiproliferative activity against human A549 cells assessed as cell growth inhibition incubated for 5 days by EZMTT assay; assay type: functional, cell-based; conditions: A549, 120 h
H22 [3] = assay: Antiproliferative activity against mouse H22 cells assessed as cell growth inhibition incubated for 5 days by EZMTT assay; assay type: functional, cell-based; conditions: H22, 120 h
Thioredoxin reductase = Thioredoxin reductase (Escherichia coli (strain K12), UniProt P0A9P4); assay: Negative allosteric modulator activity at Escherichia coli TrxR using DTNB as substrate preincubated for 20 mins followed by substrate addition in presence of NADPH and measured after 60 mins
HGC-27 = assay: Antiproliferative activity against human HGC-27 cells assessed as cell growth inhibition incubated for 5 days by EZMTT assay; assay type: functional, cell-based; conditions: HGC-27, 120 h
U-251 = assay: Antiproliferative activity against human U-251 cells assessed as cell growth inhibition incubated for 5 days by EZMTT assay; assay type: functional, cell-based; conditions: U-251, 120 h
[4] = Toxicity in ICR mouse xenografted with mouse H22 cells assessed as change in body weight at 30 mg/kg,SC for 10 consecutive days and measured after 32 days; assay type: organism-based; conditions: in vivo, 768 h, time 32 day
[5] = Toxicity in ICR mouse xenografted with mouse H22 cells assessed as change in body weight at 10 mg/kg,SC for 10 consecutive days and measured after 32 days; assay type: organism-based; conditions: in vivo, 768 h, time 32 day
HepG2 = assay: Antiproliferative activity against human HepG2 cells assessed as cell growth inhibition incubated for 5 days by EZMTT assay; assay type: functional, cell-based; conditions: HepG2, 120 h
[6] = target: T1, Glutaminase kidney isoform, mitochondrial; assay: Negative allosteric modulator activity at human wildtype KGA using glutamine as substrate preincubated for 1 hr followed by substrate addition in presence of GDH and NADP and measured after 4 hrs by EZMTT reagent based dilution assay
[7] = Negative allosteric modulator activity at human KGA K320A mutant using glutamine as substrate preincubated for 1 hr followed by substrate addition in presence of GDH and NADP and measured after 4 hrs by EZMTT reagent based dilution assay
[8] = system: KATO III stomach cancer cell line; assay: Antiproliferative activity against human KATO III stomach cancer cell line assessed as cell growth inhibition incubated for 5 days by EZMTT assay; assay type: functional, cell-based; conditions: 120 h
H22 [9] = assay: Antitumor activity against mouse H22 cells xenografted in ICR mouse assessed as increase in survival time at SC administration for 10 consecutive days and measured after 32 days; assay type: functional; conditions: time 32.0 day
[10] = Toxicity in ICR mouse xenografted with mouse H22 cells assessed as body weight loss at 10 mg/kg,SC for 10 consecutive days; assay type: organism-based; conditions: in vivo
H22 [11] = assay: Antitumor activity against mouse H22 cells xenografted in ICR mouse assessed as reduction in tumor size at 10 mg/kg,SC for 10 consecutive days; assay type: functional; design: scale not given: the % may be the effect or the level left
CAKI-1 = assay: Antiproliferative activity against human CAKI-1 cells assessed as cell growth inhibition incubated for 5 days by EZMTT assay; assay type: functional, cell-based; conditions: CAKI-1, 120 h
ACHN = assay: Antiproliferative activity against human ACHN cells assessed as cell growth inhibition incubated for 5 days by EZMTT assay; assay type: functional, cell-based; conditions: 120 h
H22 [12] = assay: Antitumor activity against mouse H22 cells xenografted in ICR mouse assessed as increase in survival time at 10 mg/kg,SC administration for 10 consecutive days and measured after 32 days; assay type: functional, organism-based; conditions: time 32.0 day
Homo sapiens [13] = organism: Homo sapiens; assay: Binding affinity to human biotinylated KGA K320A mutant at 1 to 10 uM by biolayer interferometry assay; conditions: dose 1-10 µM
H22 [14] = assay: Antitumor activity against mouse H22 cells xenografted in ICR mouse assessed as tumor growth inhibition at 0.25 mg/kg,SC for 10 consecutive days; assay type: functional, organism-based
[15] = Toxicity in ICR mouse xenografted with mouse H22 cells assessed as body weight loss at 0.25 mg/kg,SC for 10 consecutive days; assay type: organism-based; conditions: in vivo
[16] = target: T2, Glutaminase kidney isoform, mitochondrial (Homo sapiens) (UniProt O94925); assay: Binding affinity to human biotinylated wildtype KGA at 0.01 to 1 uM by biolayer interferometry assay; conditions: filed as negative allosteric modulator, dose 0.01-1 µM
T2 sequence (whole entry): T1 sequence (O94925 whole entry)

[17] = Toxicity in ICR mouse xenografted with mouse H22 cells assessed as change in body weight at 1 to 10 mg/kg,SC for 10 consecutive days and measured after 32 days; assay type: organism-based; conditions: in vivo, 768 h, dose 1-10 mg/kg, time 32 day
Homo sapiens [18] = organism: Homo sapiens; assay: Binding affinity to human biotinylated KGA K320A mutant at 0.01 to 1 uM by biolayer interferometry assay; conditions: dose 0.01-1 µM

Sequence of Thioredoxin reductase (P0A9P4 whole entry): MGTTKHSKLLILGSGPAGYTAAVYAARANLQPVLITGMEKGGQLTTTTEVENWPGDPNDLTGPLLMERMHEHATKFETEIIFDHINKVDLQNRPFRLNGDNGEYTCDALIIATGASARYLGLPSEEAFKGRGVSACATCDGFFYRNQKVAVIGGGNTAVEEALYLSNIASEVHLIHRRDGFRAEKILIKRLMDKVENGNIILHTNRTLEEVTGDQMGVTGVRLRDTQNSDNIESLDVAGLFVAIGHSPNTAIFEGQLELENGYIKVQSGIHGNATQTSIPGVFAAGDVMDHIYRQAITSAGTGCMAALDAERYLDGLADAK

SMILES: Nc1nnc(CC[Se][Se]CCc2nnc(N)[se]2)[se]1
- IC50 [1]: 3 µM
- IC50 [2]: > 10 µM
- IC50 (A549): 8 µM
- IC50 (H22 [3]): 2.6 µM
- IC50 (Thioredoxin reductase): 4 µM

SMILES: O=C1c2ccccc2C(=O)N1CC[Se][Se]CCN1C(=O)c2ccccc2C1=O
- IC50 (HGC-27): 1.2 µM
- IC50 (U-251): 1.6 µM
- Activity [4]: Toxic
- IC50 [1]: 0.4 µM
- IC50 [2]: > 10 µM
- Activity [5]: Toxic
- IC50 (HepG2): 1.9 µM
- IC50 [6]: 2.1 µM
- IC50 (A549): 1.6 µM
- IC50 [7]: > 10 µM
- IC50 [8]: 1.65 µM
- Activity (H22 [9]): Dose-Dependent Effect
- Activity [10]: Non-Toxic
- IC50 (H22 [3]): 0.83 µM
- Activity (H22 [11]): ~70%
- IC50 (CAKI-1): 3.3 µM
- IC50 (ACHN): 2.1 µM
- IC50 (Thioredoxin reductase): 0.7 µM

SMILES: O=C1c2ccccc2C(=O)N1CCSSCCN1C(=O)c2ccccc2C1=O
- IC50 [1]: > 10 µM
- IC50 [2]: > 10 µM
- IC50 (A549): > 10 µM
- IC50 (H22 [3]): > 10 µM
- IC50 (Thioredoxin reductase): > 10 µM

SMILES: Cc1nn(CCC[Se]CCn2nc(C)c(Cl)c2C)c(C)c1Cl
- IC50 [1]: > 10 µM
- IC50 [2]: > 10 µM
- IC50 (A549): > 10 µM
- IC50 (H22 [3]): 8 µM
- IC50 (Thioredoxin reductase): > 10 µM

SMILES: O=c1[nH]n(CC[Se][Se]CCn2[nH]c(=O)c3ccccc3c2=O)c(=O)c2ccccc12
- IC50 [1]: 1 µM
- IC50 [2]: > 10 µM
- IC50 (A549): > 10 µM
- IC50 (H22 [3]): > 10 µM
- IC50 (Thioredoxin reductase): 2.1 µM

SMILES: Nc1nnc(CCCCCCc2nnc(N)s2)s1
- IC50 [1]: > 10 µM
- IC50 [2]: > 10 µM
- IC50 (A549): > 10 µM
- IC50 (H22 [3]): > 10 µM
- IC50 (Thioredoxin reductase): > 10 µM

SMILES: Cc1nn(CC[Se][Se]CCn2nc(C)c(Cl)c2C)c(C)c1Cl
- IC50 [1]: 0.54 µM
- IC50 [2]: > 10 µM
- IC50 (A549): 3 µM
- IC50 (H22 [3]): 4 µM
- IC50 (Thioredoxin reductase): 0.7 µM

SMILES: Cc1cc(C)n(CCSSCCn2nc(C)cc2C)n1
- IC50 [1]: > 10 µM
- IC50 [2]: > 10 µM
- IC50 (A549): > 10 µM
- IC50 (H22 [3]): > 10 µM
- IC50 (Thioredoxin reductase): > 10 µM

SMILES: Nc1nnc(CCCCCCc2nnc(N)[se]2)[se]1
- IC50 [1]: > 10 µM
- IC50 [2]: > 10 µM
- IC50 (A549): > 10 µM
- IC50 (H22 [3]): > 10 µM
- IC50 (Thioredoxin reductase): > 10 µM

SMILES: c1ccc(CC[Se][Se]CCc2ccccc2)cc1
- IC50 [1]: > 10 µM
- IC50 [2]: > 10 µM
- IC50 (A549): > 10 µM
- IC50 (H22 [3]): 5.6 µM
- IC50 (Thioredoxin reductase): 13 µM

SMILES: O=C(Cc1cccc(OC(F)(F)F)c1)Nc1ccc(CCCCc2nnc(NC(=O)Cc3ccccn3)s2)nn1
- IC50 [2]: > 10 µM
- Activity (H22 [12]): inactive
- IC50 [7]: 0.3 µM
- IC50 (H22 [3]): > 10 µM
- Activity (Homo sapiens [13]): inactive
- IC50 (Thioredoxin reductase): > 10 µM

SMILES: Cc1c2oc3c(C)ccc(C(=O)N[C@@H]4C(=O)N[C@H](C(C)C)C(=O)N5CCC[C@H]5C(=O)N(C)CC(=O)N(C)[C@@H](C(C)C)C(=O)O[C@@H]4C)c3nc-2c(C(=O)N[C@@H]2C(=O)N[C@H](C(C)C)C(=O)N3CCC[C@H]3C(=O)N(C)CC(=O)N(C)[C@@H](C(C)C)C(=O)O[C@@H]2C)c(N)c1=O [DACTINOMYCIN] (I: T[dV]P[Sar][NMeV] / II: T[dV]P[Sar][NMeV]; ester I:1-I:C, II:1-II:C; linker I:N-II:N via Actinocin(9to1))
- Activity (H22 [14]): Active
- Activity [15]: Toxic

SMILES: O=[N+]([O-])c1ccc2c(cnn2CC[Se][Se]CCn2ncc3cc([N+](=O)[O-])ccc32)c1
- IC50 [1]: 0.4 µM
- IC50 [2]: > 10 µM
- IC50 (A549): 0.4 µM
- IC50 (H22 [3]): 8 µM
- IC50 (Thioredoxin reductase): 0.7 µM

SMILES: Cc1nn(CCSSCCn2nc(C)c(Cl)c2C)c(C)c1Cl
- IC50 [1]: > 10 µM
- IC50 [2]: > 10 µM
- IC50 (A549): > 10 µM
- IC50 (H22 [3]): > 10 µM
- IC50 (Thioredoxin reductase): > 10 µM

SMILES: Nc1nnc(CC[Se][Se]CCc2nnc(N)s2)s1
- IC50 [1]: 4 µM
- IC50 [2]: > 10 µM
- IC50 (A549): 9 µM
- IC50 (H22 [3]): 2.6 µM
- IC50 (Thioredoxin reductase): 3 µM

SMILES: Cc1cc(C)n(CC[Se][Se]CCn2nc(C)cc2C)n1
- IC50 [1]: 3.6 µM
- IC50 [2]: > 10 µM
- IC50 (A549): 1.7 µM
- IC50 (H22 [3]): 2.8 µM
- IC50 (Thioredoxin reductase): 3.7 µM

SMILES: Cc1nn(CCCCCCn2nc(C)c(Cl)c2C)c(C)c1Cl
- IC50 [1]: > 10 µM
- IC50 [2]: > 10 µM
- IC50 (A549): > 10 µM
- IC50 (H22 [3]): > 10 µM
- IC50 (Thioredoxin reductase): > 10 µM

SMILES: CCCCCCCC[Se][Se]CCCCCCCC
- IC50 [1]: > 10 µM
- IC50 [2]: > 10 µM
- IC50 (A549): > 10 µM
- IC50 (H22 [3]): > 10 µM
- IC50 (Thioredoxin reductase): > 10 µM

SMILES: Cc1nn(CC[Se][Se]CCn2nc(C)c3ccccc32)c2ccccc12
- IC50 [1]: 0.2 µM
- IC50 [2]: > 10 µM
- IC50 [6]: 2.2 µM
- IC50 (A549): 0.75 µM
- IC50 [7]: > 10 µM
- Activity (H22 [9]): Dose-Dependent Effect
- Activity [10]: Non-Toxic
- IC50 (H22 [3]): 3.5 µM
- Activity [16]: Active
- Activity [17]: Toxic
- Activity (H22 [11]): ~70%
- Activity (Homo sapiens [18]): inactive
- IC50 (Thioredoxin reductase): 0.5 µM
